Test results: patent US9320737B2, “Substituted imidazopyridazines” (Bayer Intellectual Property GmbH, priority 2011, dated 2016)

Biological target: human full-length MKNK1 (Homo sapiens (Human), UniProt Q9BUB5, T344D)
Experiment: MKNK1 kinase assay (MKNK1 TR-FRET assay)
Assay type: biochemical
Settings: GST-MKNK1 (T344D), 10 μM ATP, average or median values
Description: MKNK1-inhibitory activity of compounds of the present invention was quantified employing the MKNK1 TR-FRET assay as described in the following paragraphs.
As substrate for the kinase reaction the biotinylated peptide biotin-Ahx-[…] (C-terminus in amide form) was used which can be purchased e.g. form the company Biosyntan (Berlin-Buch, Germany).
For the assay […] of a 100 fold concentrated solution of the test compound in DMSO was pipetted into a black low volume 384 well microtiter plate (Greiner Bio-One, Frickenhausen, Germany), 2 μL of a solution of MKNK1 in aqueous assay buffer [50 mM HEPES pH 7.5, 5 mM magnesium chloride, 1.0 mM dithiothreitol, 0.005% (v/v) Nonidet-P40 (Sigma)] was added and the mixture was incubated for 15 min at 22° C. to allow pre-binding of the test compounds to the enzyme before the start of the kinase reaction. Then the kinase reaction was started by the addition of 3 μL of a solution of adenosine-tri-phosphate (ATP, 16.7 μM=>final conc. in the 5 μL assay volume is 10 μM) and substrate (0.1 μM=>final conc. in the 5 μL assay volume is 0.06 μM) in assay buffer and the resulting mixture was incubated for a reaction time of 45 min at 22° C. The concentration of MKNK1 was adjusted depending of the activity of the enzyme lot and was chosen appropriate to have the assay in the linear range, typical concentrations were in the range of 0.05 μg/ml. The reaction was stopped by the addition of 5 μL of a solution of TR-FRET detection reagents (5 nM streptavidine-XL665 [Cisbio Bioassays, Codolet, France] and 1 nM anti-ribosomal protein S6 (pSer236)-antibody from Invitrogen [#44921G] and 1 nM LANCE EU-W1024 labeled ProteinG [Perkin-Elmer, product no. AD0071]) in an aqueous EDTA-solution (100 mM EDTA, 0.1% (w/v) bovine serum albumin in 50 mM HEPES pH 7.5).
The resulting mixture was incubated for 1 h at 22° C. to allow the formation of complex between the phosphorylated biotinylated peptide and the detection reagents. Subsequently the amount of phosphorylated substrate was evaluated by measurement of the resonance energy transfer from the Eu-chelate to the streptavidine-XL. Therefore, the fluorescence emissions at 620 nm and 665 nm after excitation at 350 nm were measured in a TR-FRET reader, e.g. a Rubystar (BMG Labtechnologies, Offenburg, Germany) or a Viewlux (Perkin-Elmer). The ratio of the emissions at 665 nm and at 622 nm was taken as the measure for the amount of phosphorylated substrate.

human full-length MKNK1, sequence (Q9BUB5 other isoform, or with tags, fused parts or gaps T344D): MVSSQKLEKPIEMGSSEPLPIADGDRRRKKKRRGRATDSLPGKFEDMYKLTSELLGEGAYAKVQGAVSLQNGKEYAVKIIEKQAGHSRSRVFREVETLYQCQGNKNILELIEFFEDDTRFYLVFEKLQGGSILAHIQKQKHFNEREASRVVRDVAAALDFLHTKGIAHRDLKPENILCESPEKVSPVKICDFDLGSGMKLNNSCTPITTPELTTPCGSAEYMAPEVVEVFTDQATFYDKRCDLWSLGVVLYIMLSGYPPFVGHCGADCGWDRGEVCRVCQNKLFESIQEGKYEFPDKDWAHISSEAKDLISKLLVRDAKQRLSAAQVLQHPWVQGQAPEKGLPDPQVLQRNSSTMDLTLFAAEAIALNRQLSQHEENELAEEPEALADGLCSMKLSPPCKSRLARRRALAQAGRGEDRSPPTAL

| Compound | IC50 [µM] |
| --- | --- |
| COc1nccc2oc(-c3cnc4ccc(OCCCS(C)(=O)=O)nn34)cc12 [Example III.12, 3-(4-Methoxyfuro[3,2-c]pyridin-2-yl)-6-[3-(methylsulfonyl)propoxy]-imidazo-[1,2-b]pyridazine] | 0.012 |
| CS(=O)(CCOc1ccc2ncc(-c3cc4ccccc4o3)n2n1)=NC(=O)C(F)(F)F (stereo not shown) [Example IV.7, N-[(2-{[3-(1-Benzofuran-2-yl)imidazo[1,2-b]pyridazin-6-yl]oxy}ethyl)(methyl)oxido-lambda^6-sulfanylidene]-2,2,2-trifluoroacetamide] | 0.047 |
| CS(=O)(=O)CCCOc1ccc2ncc(-c3cc4cccc(F)c4o3)n2n1 [Example III.6, 3-(7-Fluoro-1-benzofuran-2-yl)-6-[3-(methylsulfonyl)propoxy]imidazo[1,2-b]pyridazine] | 0.048 |
| COc1cccc2oc(-c3cnc4ccc(OCCCSC)nn34)cc12 [Example I.1, 3-(4-Methoxy-1-benzofuran-2-yl)-6-[3-(methylsulfanyl)propoxy]imidazo[1,2-b]-pyridazine] | 0.021 |
| CSCCCOc1ccc2ncc(-c3cc4ccccc4o3)n2n1 [Example I.2, 3-(1-Benzofuran-2-yl)-6-[3-(methylsulfanyl)propoxy]imidazo[1,2-b]pyridazine] | 0.011 |
| CS(=O)(=O)CCCOc1ccc2ncc(-c3cc4ncccc4o3)n2n1 [Example III.14, 3-(Furo[3,2-b]pyridin-2-yl)-6-[3-(methylsulfonyl)propoxy]imidazo[1,2-b]pyridazine] | 0.06 |
| CSCCOc1ccc2ncc(-c3cc4ccccc4o3)n2n1 [Example I.4, 3-(1-Benzofuran-2-yl)-6-[2-(methylsulfanyl)ethoxy]imidazo[1,2-b]pyridazine] | 0.016 |
| Cc1c(-c2cnc3ccc(OCCCS(C)(=O)=O)nn23)oc2ccccc12 [Example III.7, 3-(3-Methyl-1-benzofuran-2-yl)-6-[3-(methylsulfonyl)propoxy]imidazo[1,2-b]pyridazine] | 0.061 |
| CS(=O)(=O)CCCOc1nn2c(-c3cc4ccccc4o3)cnc2cc1-c1ccccc1 [Example III.11, 3-(1-Benzofuran-2-yl)-6-[3-(methylsulfonyl)propoxy]-7-phenylimidazo[1,2-b]-pyridazine] | 0.017 |
| COc1nccc2oc(-c3cnc4ccc(OCCCS(C)(=O)=NC#N)nn34)cc12 (stereo not shown) [Example IV.9, [(3-{[3-(4-Methoxyfuro[3,2-c]pyridin-2-yl)imidazo[1,2-b]pyridazin-6-yl]oxy}propyl)(methyl)oxido-lambda^6-sulfanylidene]cyanamide] | 0.009 |
| COc1cccc2oc(-c3cnc4ccc(OCCCS(C)(=O)=NC(=O)C(F)(F)F)nn34)cc12 (stereo not shown) [Example IV.1, 2,2,2-Trifluoro-N-[(3-{[3-(4-methoxy-1-benzofuran-2-yl)imidazo[1,2-b]pyridazin-6-yl]oxy}propyl)(methyl)oxido-lambda^6-sulfanylidene]acetamide] | 0.009 |
| CS(=O)(=O)CCCOc1ccc2ncc(-c3cc4c(F)cccc4o3)n2n1 [Example III.9, 3-(4-Fluoro-1-benzofuran-2-yl)-6-[3-(methylsulfonyl)propoxy]imidazo[1,2-b]pyridazine] | 0.017 |
| Cc1cc2ncc(-c3cc4ccccc4o3)n2nc1OCCCS(C)(=O)=O [Example III.10, 3-(1-Benzofuran-2-yl)-7-methyl-6-[3-(methylsulfonyl)propoxy]imidazo[1,2-b]-pyridazine] | 0.011 |
| C[S+]([O-])CCCCOc1ccc2ncc(-c3cc4ccccc4o3)n2n1 (stereo not shown) [Example II.3, 3-(1-Benzofuran-2-yl)-6-[4-(methylsulfinyl)butoxy]imidazo[1,2-b]pyridazine] | 0.005 |
| CSCCCCOc1ccc2ncc(-c3cc4ccccc4o3)n2n1 [Example I.3, 3-(1-Benzofuran-2-yl)-6-[4-(methylsulfanyl)butoxy]imidazo[1,2-b]pyridazine] | 0.027 |
| CS(=O)(CCCCOc1ccc2ncc(-c3cc4ccccc4o3)n2n1)=NC(=O)C(F)(F)F (stereo not shown) [Example IV.5, N-[(4-{[3-(1-Benzofuran-2-yl)imidazo[1,2-b]pyridazin-6-yl]oxy}butyl)(methyl)oxido-lambda^6-sulfanylidene]-2,2,2-trifluoroacetamide] | 0.015 |
| CS(=O)(=O)CCCOc1ccc2ncc(-c3cc4cnccc4o3)n2n1 [III.13, 3-(Furo[3,2-c]pyridin-2-yl)-6-[3-(methylsulfonyl)propoxy]imidazo[1,2-b]-pyridazine] | 0.028 |
| COc1nccc2oc(-c3cnc4ccc(OCCCS(C)(=N)=O)nn34)cc12 (stereo not shown) [Example IV.10, 3-(4-Methoxyfuro[3,2-c]pyridin-2-yl)-6-[3-(S-methylsulfonimidoyl)propoxy]-imidazo[1,2-b]pyridazine] | 0.009 |
| Cc1cccc2cc(-c3cnc4ccc(OCCCS(C)(=O)=O)nn34)oc12 [Example III.8, 3-(7-Methyl-1-benzofuran-2-yl)-6-[3-(methylsulfonyl)propoxy]imidazo[1,2-b]pyridazine] | 0.07 |
| CS(=O)(=O)CCCOc1ccc2ncc(-c3cc4cc(Cl)ccc4o3)n2n1 [Example III.5, 3-(5-Chloro-1-benzofuran-2-yl)-6-[3-(methylsulfonyl)propoxy]imidazo[1,2-b]pyridazine] | 0.015 |

More lines, in order of falling IC50, values ahead:

| IC50 [µM] | Compound |
| --- | --- |
| 0.007 | CS(=O)(CCCOc1ccc2ncc(-c3cc4ccccc4o3)n2n1)=NC#N (stereo not shown) [Example IV.8, [(3-{[3-(1-Benzofuran-2-yl)imidazo[1,2-b]pyridazin-6-yl]oxy}propyl)(methyl)oxido-lambda^6-sulfanylidene]cyanamide] |
| 0.007 | CS(=O)(=O)CCCOc1ccc2ncc(-c3cc4cc(F)ccc4o3)n2n1 [Example III.4, 3-(5-Fluoro-1-benzofuran-2-yl)-6-[3-(methylsulfonyl)propoxy]imidazo[1,2-b]pyridazine] |
| 0.005 | CS(=O)(=O)CCCOc1ccc2ncc(-c3cc4ccccc4o3)n2n1 [Example III.1, 3-(1-Benzofuran-2-yl)-6-[3-(methylsulfonyl)propoxy]imidazo[1,2-b]pyridazine] |
| 0.005 | COc1ccc2oc(-c3cnc4ccc(OCCCS(C)(=O)=O)nn34)cc2c1 [Example III.2, 3-(5-Methoxy-1-benzofuran-2-yl)-6-[3-(methylsulfonyl)propoxy]imidazo[1,2-b]pyridazine] |
| 0.004 | CS(=N)(=O)CCCOc1ccc2ncc(-c3cc4ccccc4o3)n2n1 (stereo not shown) [Example IV.4, 3-(1-Benzofuran-2-yl)-6-[3-(S-methylsulfonimidoyl)propoxy]imidazo[1,2-b]pyridazine] |
| 0.004 | C[S+]([O-])CCCOc1ccc2ncc(-c3cc4ccccc4o3)n2n1 (stereo not shown) [Example II.2, 3-(1-Benzofuran-2-yl)-6-[3-(methylsulfinyl)propoxy]imidazo[1,2-b]pyridazine] |
| 0.002 | COc1cccc2oc(-c3cnc4ccc(OCCC[S+](C)[O-])nn34)cc12 (stereo not shown) [Example II.1, 3-(4-Methoxy-1-benzofuran-2-yl)-6-[3-(methylsulfinyl)propoxy]imidazo[1,2-b]pyridazine] |
| 0.002 | COc1cccc2oc(-c3cnc4ccc(OCCCS(C)(=O)=O)nn34)cc12 [Example III.3, 3-(4-Methoxy-1-benzofuran-2-yl)-6-[3-(methylsulfonyl)propoxy]imidazo[1,2-b]pyridazine] |
